pIC50: −log10 of the molar value. Like-named read-outs stand apart in the source and are kept apart here.
Experiments:
[1] = tested on: KRas G12D-mediated ERK phosphorylation; assay: Inhibition of KRas G12D-mediated ERK phosphorylation in AGS cells; format: cell-based; settings: read-out: AGS-pERK IC50
Method: Day 1: AGS cells were seeded into 384-well cell culture plates and cultured overnight in a 37° C., 5% CO2 incubator.
Day 2: The compounds were added to the plates using Echo550 and incubated for 3 h in a 37° C., 5% CO2 incubator. Then cells were fixed with paraformaldehyde, permeated with methanol, and blocked with the blocking solution. Finally, a mixed solution of primary antibodies (rabbit anti pERK, mouse anti GAPDH) was added, and the mixture was incubated at 4° C. overnight.
Day 3: The mixed solution of primary antibodies was discarded, and a mixed solution of secondary antibodies (goat anti rabbit 800CW, goat anti mouse 680RD) was added. The mixture was incubated at room temperature in the dark. Finally, the cell culture plate was washed with PBST, and then inverted for 1 minute of centrifugation. The fluorescence signal values were read with Odyssey CLx.
ERK phosphorylation was calculated according to the following formula: […]
X: log value of compound concentration.
Y: average value of relative expression of p-ERK between replicate wells.

[2] = Pharmacokinetics of compounds in rats (oral); format: in vivo, SD rats; settings: male SD rats
Method: Male SD rats were purchased from Shanghai SIPPR-Bk Lab Animal Co., Ltd. Each test compound was administered orally (3 rats per group) once to SD rats for pharmacokinetic study. The test compounds were prepared on the day of administration. The test compounds were suspended in 5% DMSO+95% saline, and then vortexed for 2 min and ultrasonicated for 5 min to prepare the administration system. The animals were fasted for 10-14 h before oral administration, and the feeding was resumed 4 h after administration. After oral administration by gavage, pharmacokinetic samples were collected from SD rats through the jugular vein. The collection time points were: before administration, 15 min, 30 min, 1 h, 2 h, 4 h, 6 h, 8 h and 24 h after administration. Three whole blood samples were collected at each time point, with a collection volume of about 0.2 mL, and anticoagulated with sodium heparin. After blood samples were collected, they were immediately placed on ice and centrifuged to separate plasma within 1 hour (centrifugation conditions: 6800 rpm, 6 min, 2-8° C.). The collected plasma was stored in a −80° C. refrigerator before analysis.

[3] = male, SD, rat, plasma, po, 100 mg/kg, 100 mg/kg, read-out: AUC
[4] = male, SD, rat, plasma, po, 100 mg/kg, 100 mg/kg, read-out: Cmax
[5] = male, SD, rat, plasma, po, 10 mg/kg, 10 mg/kg, read-out: AUC
[6] = male, SD, rat, plasma, po, 10 mg/kg, 10 mg/kg, read-out: Cmax

4-(4-((1R,5S)-3,8-diazabicyclo[3.2.1]octan-3-yl)-2-((3-(1,3-dihydroisobenzofuran-5-yl-1,1,3,3-d4)tetrahydro-1H-pyrrolizin-7a(5H)-yl)methoxy)-8-fluoropyridin[4,3-d]pyrimidin-7-yl)naphthalen-2-ol [Example 148]
pIC50 [1]: 7.92

Cc1ccc([C@H]2CCC3(COc4nc(N5CC6CCC(C5)N6)c5cnc(-c6cc(O)cc7ccc(F)c(F)c67)c(F)c5n4)CCCN23)cc1 (mixture of isomers) [Example 213]
pIC50 ([1]; Homo sapiens, AGS): 8.74

C#Cc1c(F)ccc2cc(O)cc(-c3ncc4c(N5CC6CCC(C5)N6)nc(OCC56CCCN5[C@@H](c5ccc(OC(F)(F)F)cc5)CC6)nc4c3F)c12 (mixture of isomers) [Example 214]
pIC50 ([1]; Homo sapiens, AGS): 9.00

Oc1cc(-c2ncc3c(N4CC5CCC(C4)N5)nc(OCC45CCCN4[C@@H](c4ccc(C(F)(F)F)c(Cl)c4)CC5)nc3c2F)c2c(F)c(F)ccc2c1 (mixture of isomers) [Example 215]
AUC [2, 3]: 0.471 µg·h/mL
Cmax [2, 4]: 0.128 µg/mL

Oc1cc(-c2ncc3c(N4CC5CCC(C4)N5)nc(OCC45CCCN4[C@@H](c4ccc6c(c4)COC6)CC5)nc3c2F)c2c(F)c(F)ccc2c1 (mixture of isomers) [Example 217]
pIC50 ([1]; Homo sapiens, AGS): 8.89

Oc1cc(-c2ncc3c(N4CC5CCC(C4)N5)nc(OCC45CCCN4[C@@H](c4ccc6ccccc6c4)CC5)nc3c2F)c2c(F)c(F)ccc2c1 (mixture of isomers) [Example 218]
pIC50 ([1]; Homo sapiens, AGS): 8.62

Oc1cc(-c2ncc3c(N4CC5CCC(C4)N5)nc(OCC45CCCN4[C@@H](c4ccc(C(F)(F)F)c(C(F)(F)F)c4)CC5)nc3c2F)c2c(F)c(F)ccc2c1 (mixture of isomers) [Example 219]
pIC50 ([1]; Homo sapiens, AGS): 8.21

Oc1cc(-c2ncc3c(N4CC5CCC(C4)N5)nc(OCC45CCCN4[C@@H](c4ccc(F)c(F)c4)CC5)nc3c2F)c2c(F)c(F)ccc2c1 (mixture of isomers) [Example 224]
pIC50 ([1]; Homo sapiens, AGS): 9.15

COc1cc([C@H]2CCC3(COc4nc(N5CC6CCC(C5)N6)c5cnc(-c6cc(O)cc7ccc(F)c(F)c67)c(F)c5n4)CCCN23)ccc1C(F)(F)F (mixture of isomers) [Example 228]
pIC50 ([1]; Homo sapiens, AGS): 8.72

Nc1ccc(C(F)(F)F)c(-c2ncc3c(N4CC5CCC(C4)N5)nc(OCC45CCCN4[C@@H](c4ccc6c(c4)OC(F)(F)O6)CC5)nc3c2F)c1 (mixture of isomers) [Example 234]
AUC [2, 3]: 1.19 µg·h/mL
Cmax [2, 4]: 0.182 µg/mL

Cc1cc(N)cc(-c2ncc3c(N4CC5CCC(C4)N5)nc(OCC45CCCN4[C@@H](c4ccc6c(c4)OC(F)(F)O6)CC5)nc3c2F)c1C(F)(F)F (mixture of isomers) [Example 235]
pIC50 ([1]; Homo sapiens, AGS): 7.89

Oc1cc(-c2ncc3c(N4CC5CCC(C4)N5)nc(OCC45CCCN4[C@@H](c4ccc(F)cc4)CC5)nc3c2F)c2c(F)c(F)ccc2c1 (single isomer, unassigned) [Example 193]
pIC50 ([1]; Homo sapiens, AGS): 8.04

C#Cc1c(F)ccc2cc(O)cc(-c3ncc4c(N5CC6CCC(C5)N6)nc(OCC56CCCN5[C@@H](c5ccc(F)cc5)CC6)nc4c3F)c12 (single isomer, unassigned) [Example 196]
pIC50 ([1]; Homo sapiens, AGS): 8.85

Oc1cc(-c2ncc3c(N4CC5CCC(C4)N5)nc(OCC45CCCN4[C@@H](c4ccc(C(F)(F)F)cc4)CC5)nc3c2F)c2c(F)c(F)ccc2c1 (single isomer, unassigned) [Example 202]
pIC50 ([1]; Homo sapiens, AGS): 8.74

C#Cc1c(F)ccc2cc(O)cc(-c3ncc4c(N5CC6CCC(C5)N6)nc(OCC56CCCN5[C@@H](c5ccc(C(F)(F)F)cc5)CC6)nc4c3F)c12 (single isomer, unassigned) [Example 204]
pIC50 ([1]; Homo sapiens, AGS): 9.11

Oc1cc(-c2ncc3c(N4C[C@H]5CC[C@@H](C4)N5)nc(OCC45CCCN4C(c4ccc(C6=CCOCC6)cc4)CC5)nc3c2F)c2ccccc2c1 (stereo partly drawn) [Example 45, 4-(4-((1R,5S)-3,8-diazabicyclo[3.2.1]octan-3-yl)-2-((3-(4-(3,6-dihydro-2H-pyran-4-yl)phenyl)tetrahydro-1H-pyrrolidin-7a(5H)-yl)methoxy)-8-fluoropyrido[4,3-d]pyrimidin-7-yl)naphthalen-2-ol]
AUC ([2]; 10 mg/kg): 0.094 µg·h/mL
Cmax ([2]; 10 mg/kg): 0.021 µg/mL

C#Cc1c(F)ccc2cc(O)cc(-c3ncc4c(N5C[C@H]6CC[C@@H](C5)N6)nc(OCC56CCCN5C(c5ccc(OC)cc5)CC6)nc4c3F)c12 (stereo partly drawn) [Example 52, 4-(4-((1R,5S)-3,8-diazabicyclo[3.2.1]octan-3-yl)-8-fluoro-2-((3-(4-methoxyphenyl)tetrahydro-1H-pyrrolidin-7a(5H)-yl)methoxy)pyrido[4,3-d]pyrimidin-7-yl)-5-ethynyl-6-fluoronaphthalen-2-ol]
pIC50 [1]: 8.22

Oc1cc(-c2ncc3c(N4CC5CCC(C4)C5(F)F)nc(OC[C@@]45CCCN4C[C@H](F)C5)nc3c2F)c2c(F)c(F)ccc2c1 [Example 86]
AUC [2, 5]: 0.052 µg·h/mL
Cmax [2, 6]: 0.021 µg/mL

Oc1cc(-c2ncc3c(N4CC5CCC(C4)N5)nc(OCC45CCCN4C(c4cccc(F)c4)CC5)nc3c2F)c2c(F)c(F)ccc2c1 (centres unmarked) [Example 110]
pIC50 ([1]; Homo sapiens, AGS): 7.46

COc1ccc(C2CCC3(COc4nc(N5CC6CCC(C5)N6)c5cnc(-c6cc(O)cc7ccc(F)c(F)c67)c(F)c5n4)CCCN23)cc1OC (centres unmarked) [Example 113]
pIC50 ([1]; Homo sapiens, AGS): 7.82

Oc1cc(-c2ncc3c(N4CC5CCC(C4)N5)nc(OCC45CCCN4C(c4ccc6c(c4)OCO6)CC5)nc3c2F)c2c(F)c(F)ccc2c1 (centres unmarked) [Example 114]
pIC50 ([1]; Homo sapiens, AGS): 7.85

Oc1cc(-c2ncc3c(N4CC5CCC(C4)N5)nc(OCC45CCCN4C(c4ccc(OC(F)(F)F)cc4)CC5)nc3c2F)c2ccccc2c1 (centres unmarked) [Example 118]
AUC [2, 5]: 0.224 µg·h/mL
Cmax [2, 6]: 0.031 µg/mL
AUC [2, 3]: 1.29 µg·h/mL
Cmax [2, 4]: 0.115 µg/mL

Oc1cc(-c2ncc3c(N4CC5CCC(C4)N5)nc(OCC45CCCN4C(c4ccc6occc6c4)CC5)nc3c2F)c2ccccc2c1 (centres unmarked) [Example 131]
AUC [2, 5]: 0.057 µg·h/mL
Cmax [2, 6]: 0.013 µg/mL

Oc1cc(-c2ncc3c(N4CC5CCC(C4)N5)nc(OCC45CCCN4C(c4ccc6c(c4)OC(F)(F)O6)CC5)nc3c2F)c2ccccc2c1 (centres unmarked) [Example 132]
AUC [2, 5]: 0.24 µg·h/mL
Cmax [2, 6]: 0.029 µg/mL

Oc1cc(-c2ncc3c(N4C[C@H]5CC[C@@H](C4)N5)nc(OCC45CCCN4C(c4ccc6c(c4)OC(F)(F)O6)CC5)nc3c2F)c2c(F)c(F)ccc2c1 (stereo partly drawn) [Example 140, 4-(4-((1R,5S)-3,8-diazabicyclo[3.2.1]octan-3-yl)-2-((3-(2,2-difluorobenzo[d][1,3]dioxy-5-yl)tetrahydro-1H-pyrrolizin-7a(5H)-yl)methoxy)-8-fluoropyridin[4,3d]pyrimidin-7-yl)-5,6-difluoronaphthalen-2-ol]
AUC ([2]; 100 mg/kg): 0.444 µg·h/mL
Cmax ([2]; 100 mg/kg): 0.113 µg/mL

Oc1cc(-c2ncc3c(N4C[C@H]5CC[C@@H](C4)N5)nc(OCC45CCC(c6ccc(OC(F)(F)F)cc6)N4CC4(CC4)C5)nc3c2F)c2ccccc2c1 (stereo partly drawn) [Example 143, 4-(4-((1R,5S)-3,8-diazabicyclo[3.2.1]octan-3-yl)-8-fluoro-2-((5′-(4-(trifluoromethoxy)phenyl)dihydro-1′H,3′H-spiro[cyclopropan-1,2′-pyrrolizin]-7a′(5′H)-yl)methoxy]pyrido[4,3d]pyrimidin-7-yl)naphthalen-2-ol]
AUC ([2]; 10 mg/kg): 0.41 µg·h/mL
Cmax ([2]; 10 mg/kg): 0.032 µg/mL

Nc1ccc(OC(F)(F)F)c(-c2ncc3c(N4CC5CCC(C4)N5)nc(OC[C@]45CCCN4C(c4ccc6c(c4)OC(F)(F)O6)CC5)nc3c2F)c1 (stereo partly drawn) [Example 163, 3-(4-((1R,5S)-3,8-diazabicyclo[3.2.1]octan-3-yl)-2-((3-(2,2-difluorobenzo[d][1,3]dioxy-5-yl)tetrahydro-1H-pyrrolizin-7a(5H)-yl)methoxy)-8-fluoropyridin[4,3d]pyrimidin-7-yl)-4-(trifluoromethoxy)]
AUC [2, 3]: 2.75 µg·h/mL
Cmax [2, 4]: 0.388 µg/mL

Oc1cc(-c2ncc3c(N4CC5CCC(C4)N5)nc(OCC45CCCN4C(c4ccc(C(F)(F)F)cc4)CC5)nc3c2F)c2ccccc2c1 (centres unmarked) [Example 170]
AUC [2, 5]: 0.533 µg·h/mL
Cmax [2, 6]: 0.039 µg/mL

Oc1cc(-c2ncc3c(N4CC5CCC(C4)N5)nc(OCC45CCCN4C(c4ccc(-c6ccc(F)cc6)cc4)CC5)nc3c2F)c2c(F)c(F)ccc2c1 (centres unmarked) [Example 190]
AUC [2, 3]: 0.939 µg·h/mL
Cmax [2, 4]: 0.066 µg/mL

Oc1cc(-c2ncc3c(N4CC5CCC(C4)N5)nc(OCC45CCCN4C(c4ccc(OC(F)(F)F)cc4)CC5)nc3c2F)c2c(F)c(F)ccc2c1 (centres unmarked) [Example 210]
AUC [2, 3]: 0.246 µg·h/mL
Cmax [2, 4]: 0.145 µg/mL

Nc1cc(F)c(C(F)(F)F)c(-c2ncc3c(N4CC5CCC(C4)N5)nc(OCC45CCCN4C(c4ccc6c(c4)OC(F)(F)O6)CC5)nc3c2F)c1 (centres unmarked) [Example 237]
AUC [2, 3]: 1.51 µg·h/mL
Cmax [2, 4]: 0.362 µg/mL

From patent US20250206759A1, “FUSED RING COMPOUND, PHARMACEUTICAL COMPOSITION CONTAINING SAME, AND USE OF FUSED RING COMPOUND” (CHENGDU HYPERWAY PHARMACEUTICALS CO., LTD., priority 2022, published 2025)
